In brackets after ≈: the same amount, converted by molar mass. Several values for one entry are separate records, joined by “and”; a condition that tells them apart may be missing. Equal entries are not always repeated.
Columns and labels:
M. tuberculosis H37Rv = assay: microbe, parasite or virus in culture; type: cell-based, Mycobacterium tuberculosis; conditions: for MIC: Mycobacterium tuberculosis, H37RV, read-out: MIC; for SI (CC50/MIC): ratio of CC50 for L929 fibroblasts to MIC for strain H37Rv
M. tuberculosis H37Ra = assay: microbe, parasite or virus in culture; type: cell-based, Mycobacterium tuberculosis; conditions: Mycobacterium tuberculosis, H37RA
in vitro = type: cell-based, murine; conditions: mouse
Procedure: A549 human pulmonary epithelial cells (KCLB 10185), human embryonic kidney (HEK) 293 cells (KCLB 21573), human THP-1 leukemia cells (KCLB 40202), human neuroblastoma SH-SY5Y cells (KCLB 22266), Murine Raw 264.7 macrophages (KCLB 40071), and L929 murine fibroblasts (KCLB 10001) were purchased from the KCLB (Seoul, Korea). Cytotoxicity testing was performed using the MTT assay and the WST-1 cell viability assay as previously described.

[1] = type: cell-based; conditions: positive control, TA98, 5.0 μg/plate, absence of S9 mix
intestinal microbiome = assay: Gut microbiome, 16s rRNA gene-based metagenomics analysis of feces; type: in vivo, BALB/c mice; conditions: 30 mg/kg oral once a day for 7 days, BALB/c mice, feces
Procedure: Six-week-old BALB/c female mice were used for this study (6 mice for each group). Each drug was administered orally at 30 mg/kg once daily for 7 days. Stool was collected, and 16 rRNA gene-based metagenomics analysis was performed. Corn oil was used as the vehicle. The drug-free group received corn oil only. This animal experiment was conducted with the approval of the IACUC of the Soonchunhyang University (approval number: SCH21-0011). Microbiome analysis of collected feces was carried out as previously described with some modifications. Total DNA was extracted from the stool using the QIAamp DNA stool mini kit (Qiagen, Germany) after mechanical disruption using lysing matrix B tubes (MP Biomedicals, USA). V4 region of 16S RNA gene was amplified from extracted DNA with the following primers: forward primer ([…]) and reverse primer ([…]). PCR was performed using the Kappa HiFi hot start kit (KAPA Biosystems, USA) for 16s gene amplification and library preparation. A dsDNA HS assay kit and Qubit 4 fluorimeter (Invitrogen, USA) were used for DNA quantification. After each step, quality was checked using Agilent High Sensitivity DNA Kit and Agilent Bioanalyzer 2100 (Agilent Technologies, USA). Clean-up was performed using AMPure XP beads (Beckman Coulter, UK). The metagenomic library was prepared using a Nextera XT DNA Library Prep Kit (Illumina, USA) and loaded into an iSeq-100 reagent cartridge (Illumina, USA) together with a PhiX Control library (Illumina, USA). A 300-bp paired-end sequencing was performed on an iSeq-100 platform (Illumina, USA). Sequencing data were analyzed using the EzBioCloud server (Chunlab, Korea).

M. szulgai = assay: microbe, parasite or virus in culture; type: cell-based; conditions: Mycobacterium szulgai
M. colombiense = assay: microbe, parasite or virus in culture; type: cell-based; conditions: Mycobacterium colombiense
M. aubagnense = assay: microbe, parasite or virus in culture; type: cell-based, Mycobacterium aubagnense; conditions: Mycolicibacterium aubagnense
M. kansasii = assay: microbe, parasite or virus in culture; type: cell-based; conditions: Mycobacterium kansasii
M. xenopi = assay: microbe, parasite or virus in culture; type: cell-based; conditions: Mycobacterium xenopi
M. conceptionense = assay: microbe, parasite or virus in culture; type: cell-based, Mycobacterium conceptionense; conditions: Mycolicibacterium senegalense
M. intracellulare = assay: microbe, parasite or virus in culture; type: cell-based; conditions: Mycobacterium intracellulare
M. bovis = assay: microbe, parasite or virus in culture; type: cell-based; conditions: Mycobacterium tuberculosis variant bovis
M. heraklionease = assay: microbe, parasite or virus in culture; type: cell-based; conditions: Mycobacterium
M. avium = assay: microbe, parasite or virus in culture; type: cell-based; conditions: Mycobacterium avium
M. bolletii = assay: microbe, parasite or virus in culture; type: cell-based, Mycobacterium bolletii; conditions: Mycobacteroides abscessus
M. massiliense = assay: microbe, parasite or virus in culture; type: cell-based, Mycobacterium massiliense; conditions: Mycobacteroides abscessus
M. phlei = assay: microbe, parasite or virus in culture; type: cell-based, Mycobacterium phlei; conditions: Mycolicibacterium phlei
M. gilvum = assay: microbe, parasite or virus in culture; type: cell-based, Mycobacterium gilvum; conditions: Mycolicibacterium gilvum
M. fortuitum = assay: microbe, parasite or virus in culture; type: cell-based, Mycobacterium fortuitum; conditions: Mycolicibacterium fortuitum
M. phocaicum = assay: microbe, parasite or virus in culture; type: cell-based, Mycobacterium phocaicum; conditions: Mycolicibacterium phocaicum
M. marseiliense = assay: microbe, parasite or virus in culture; type: cell-based; conditions: Mycobacterium
[2] = test system: clinically isolated MDR, XDR, and TDR M. tuberculosis strains; assay: microbe, parasite or virus in culture; type: cell-based; conditions: Mycobacterium tuberculosis
M. marinum = assay: microbe, parasite or virus in culture; type: cell-based; conditions: Mycobacterium marinum
M. goodie = assay: microbe, parasite or virus in culture; type: cell-based; conditions: Mycobacterium
M. arupense = assay: microbe, parasite or virus in culture; type: cell-based, Mycobacterium arupense; conditions: Mycolicibacter arupensis
M. abscessus = assay: microbe, parasite or virus in culture; type: cell-based, Mycobacterium abscessus; conditions: Mycobacteroides abscessus
M. gordonae = assay: microbe, parasite or virus in culture; type: cell-based; conditions: Mycobacterium gordonae
M. chitae = assay: microbe, parasite or virus in culture; type: cell-based, Mycobacterium chitae; conditions: Mycolicibacterium chitae
M. neoaurum = assay: microbe, parasite or virus in culture; type: cell-based, Mycobacterium neoaurum; conditions: Mycolicibacterium neoaurum
M. smegmatis = assay: microbe, parasite or virus in culture; type: cell-based, Mycobacterium smegmatis; conditions: Mycolicibacterium smegmatis
M. peregrinum = assay: microbe, parasite or virus in culture; type: cell-based, Mycobacterium peregrinum; conditions: Mycolicibacterium peregrinum
M. kyorinense = assay: microbe, parasite or virus in culture; type: cell-based; conditions: Mycobacterium kyorinense

`COC(=O)[C@H]1CCC(=O)N1Cc1cc2ccc(OC)cc2c2cc(OC)c(OC)cc12` [PP1R] showed an MIC (M. tuberculosis H37Rv) of over 100 µg/mL and an MIC (M. tuberculosis H37Ra) of over 100 µg/mL.
`CCOc1ccc2cc(C(=O)OC)c3cc(OC)c(OC)cc3c2c1` [DPGA7] showed an MIC (M. tuberculosis H37Rv) of over 100 µg/mL, a CC50 (in vitro; L929, MTT assay (Table S1)) of over 100 µg/mL and a CC50 (in vitro; RAW, MTT assay (Table S1)) of over 100 µg/mL. The MIC (M. tuberculosis H37Ra) was over 100 µg/mL.
Work on `COC(=O)c1cc2ccc(OC3CCCCC3)cc2c2cc(OC)c(OC)cc12` [DPGA6] yielded an MIC (M. tuberculosis H37Rv) of over 100 µg/mL, a CC50 (in vitro; L929, MTT assay (Table S1)) of over 100 µg/mL and a CC50 (in vitro; RAW, MTT assay (Table S1)) of over 100 µg/mL. For the same compound, the MIC (M. tuberculosis H37Ra) was over 100 µg/mL.
For `CCCCOc1ccc2cc(C(=O)OC)c3cc(OC)c(OC)cc3c2c1` [DPGA10], the MIC (M. tuberculosis H37Rv) was over 100 µg/mL, the “SI (CC50/MIC)” value (M. tuberculosis H37Rv) was under 0.2 and the CC50 (in vitro; L929, MTT assay (Table S1)) was 21.5 µg/mL (≈ 58.4 µM). It also gave a CC50 (in vitro; RAW, MTT assay (Table S1)) of over 100 µg/mL and an MIC (M. tuberculosis H37Ra) of over 100 µg/mL.
With `O=[N+]([O-])c1ccc2c(c1)Cc1ccccc1-2` [2-NF] the “Individual revertant colony counts” value [1] was 705 colonies per plate and 649 colonies per plate and the Mean revertant colonies [1] was 677 colonies per plate.
In the case of `CN[C@H](CC(C)C)C(=O)N[C@H]1C(=O)N[C@@H](CC(N)=O)C(=O)N[C@H]2C(=O)N[C@H]3C(=O)N[C@H](C(=O)N[C@H](C(=O)O)c4cc(O)cc(O)c4-c4cc3ccc4O)[C@H](O)c3ccc(c(Cl)c3)Oc3cc2cc(c3O[C@@H]2O[C@H](CO)[C@@H](O)[C@H](O)[C@H]2O[C@H]2C[C@](C)(N)[C@H](O)[C@H](C)O2)Oc2ccc(cc2Cl)[C@H]1O` [VAN, vancomycin], the “beta set-significance analysis, pair-wise comparison of gut microbiome” value (intestinal microbiome) is reported as “significant”, the “difference in phylum or class level taxa compared to drug-free group” value (intestinal microbiome) is reported as “significant differences” and the “phylogenetic diversity compared to drug-free control group” value (intestinal microbiome) is reported as “significantly decreased”.
For `CCCCOc1ccc2cc(CO)c3cc(OC)c(OC)cc3c2c1` [DPGA11], the MIC (M. tuberculosis H37Rv) was over 100 µg/mL, the “SI (CC50/MIC)” value (M. tuberculosis H37Rv) was under 0.7 and the CC50 (in vitro; L929, MTT assay (Table S1)) was 73.7 µg/mL (≈ 216 µM). For the same compound, the CC50 (in vitro; RAW, MTT assay (Table S1)) was over 100 µg/mL and the MIC (M. tuberculosis H37Ra) was over 100 µg/mL.
`CCCCOc1ccc2cc(CN3C(=O)CC[C@@H]3C(=O)OC)c3cc(OC)c(OC)cc3c2c1` [PP2R] gave an MIC (M. tuberculosis H37Rv) of over 100 µg/mL and an MIC (M. tuberculosis H37Ra) of over 100 µg/mL.
Work on `CC[C@@H](CO)NCCN[C@@H](CC)CO` [EMB, ethambutol] yielded an MIC (M. szulgai) of 3.1 µg/mL (≈ 15.2 µM), an MIC (M. colombiense) of 6.3 µg/mL (≈ 30.8 µM) and an MIC (M. aubagnense) of 50 µg/mL (≈ 245 µM). The MIC (M. kansasii) was 1.6 µg/mL (≈ 7.83 µM), the MIC (M. xenopi) was 25 µg/mL (≈ 122 µM) and the MIC (M. conceptionense) was 50 µg/mL (≈ 245 µM). It also gave an MIC (M. intracellulare) of 3.1 µg/mL (≈ 15.2 µM), an MIC (M. bovis) of 1.6 µg/mL (≈ 7.83 µM) and an MIC (M. heraklionease) of 100 µg/mL (≈ 489 µM). It also gave an MIC (M. avium) of 50 µg/mL (≈ 245 µM), an MIC (M. bolletii) of over 100 µg/mL and an MIC (M. tuberculosis H37Rv) of 1.6 µg/mL (≈ 7.83 µM). For the same compound, the MIC (M. massiliense) was 100 µg/mL (≈ 489 µM), the MIC (M. phlei) was 1.6 µg/mL (≈ 7.83 µM) and the MIC (M. gilvum) was 12.5 µg/mL (≈ 61.2 µM). It also gave an MIC (M. fortuitum) of 12.5 µg/mL (≈ 61.2 µM), an MIC (M. phocaicum) of 0.4 µg/mL (≈ 1.96 µM) and an MIC (M. marseiliense) of 100 µg/mL (≈ 489 µM). It also gave an MIC ([2]; TDR-1) of 6.3 µg/mL (≈ 30.8 µM), an MIC ([2]; TDR-2) of 6.3 µg/mL (≈ 30.8 µM) and an MIC ([2]; TDR-3) of 6.3 µg/mL (≈ 30.8 µM). It also gave an MIC (M. marinum) of 3.1 µg/mL (≈ 15.2 µM), an MIC (M. goodie) of 0.8 µg/mL (≈ 3.92 µM) and an MIC (M. arupense) of 0.4 µg/mL (≈ 1.96 µM). For the same compound, the MIC (M. abscessus) was 100 µg/mL (≈ 489 µM), the MIC (M. gordonae) was over 100 µg/mL and the MIC (M. chitae) was 0.2 µg/mL (≈ 0.979 µM). The MIC (M. neoaurum) was 6.3 µg/mL (≈ 30.8 µM), the MIC (M. smegmatis) was 0.8 µg/mL (≈ 3.92 µM) and the MIC (M. peregrinum) was 3.1 µg/mL (≈ 15.2 µM). It also gave an MIC (M. kyorinense) of 50 µg/mL (≈ 245 µM).
